Test system: OCI-AML2 xenografts
Assay: OCI-AML2 xenograft efficacy (tumor volume, body weight)
Settings: for Tumor Volume Day 14, Mean / Tumor Volume Day 14, Median / % T/C (mean), Tumor Volume Day 14 / % T/C (median), Tumor Volume Day 14: Day 14 (measure date = dosing begin); for Tumor Volume Day 14, Mean / Tumor Volume Day 18, Mean / Tumor Volume Day 21, Mean: group mean of 8 mice; for Tumor Volume Day 14, Median / Tumor Volume Day 18, Median / Tumor Volume Day 21, Median: group median of 8 mice; for % T/C (mean), Tumor Volume Day 14 / % T/C (median), Tumor Volume Day 14 / % T/C (mean), Tumor Volume Day 18 / % T/C (median), Tumor Volume Day 18 / % T/C (mean), Tumor Volume Day 21 / % T/C (median), Tumor Volume Day 21: control Group 01; for % T/C (mean), Tumor Volume Day 25: mean(T)/mean(C) vs Group 01 (0 mg/kg); for % T/C (median), Tumor Volume Day 25: median(T)/median(C) vs Group 01 (0 mg/kg); for % Mortality: OCI-AML-2 (DSMZ) xenograft, SCID-beige mouse, F
[1] = ABBV-467 […] Q7Dx3 IV, Venetoclax 25 mg/kg QDx14 PO, 5-Aza 8 mg/kg Q7Dx3 IV
[2] = Venetoclax 25 mg/kg QDx14 PO, 5-Aza 8 mg/kg Q7Dx3 IV
[3] = group mean, n=8, ABBV-467 […] Q7Dx3 IV, Venetoclax 25 mg/kg QDx14 PO, 5-Aza 8 mg/kg Q7Dx3 IV
[4] = group median, n=8, ABBV-467 […] Q7Dx3 IV, Venetoclax 25 mg/kg QDx14 PO, 5-Aza 8 mg/kg Q7Dx3 IV

Method: All animal studies were conducted in accordance with the guidelines approved by the Institutional Animal Care and Use Committees of AbbVie. The research protocol was approved by In Vivo Pharmacology at AbbVie prior to study initiation but was not publicly registered or disclosed. Female C.B-17 SCID-beige mice (AMO-1, OPM-2, NCI-H929, and OCI-AML2 xenografts) and female NSG mice (MV4-11-Red.Fluc systemic) were purchased from Charles River Laboratories (Wilmington, MA). Animals were housed in a light cycle-controlled room with HEPA filtration at 22 °C. Animals had nesting and climbing cage topper as the primary environmental enrichment. Animals were inoculated subcutaneously in the right flank with 5 × 10^6 (AMO-1, OPM-2, NCI-H929, and OCI-AML2) or intravenous (IV) with 5 × 10^6 (MV4-11-Red.Fluc). The inoculation volume (0.2 mL) comprised a 50:50 mixture of cells in growth media and Matrigel (BD Biosciences) for subcutaneous injections and 100% phosphate-buffered saline for IV administration. […] Electronic calipers were used to measure the length and width of each tumor 2 to 3 times per week. Tumor volume was estimated by applying the following equation: volume = length × width^2/2. All groups remained blinded during measurements and dosing; only veterinary staff were aware of group identity. When tumors reached approximately 200 mm^3, mice were randomized by match and distributed into treatment and control groups. All xenograft trials were conducted using 5 to 10 mice per group, and all mice were ear tagged and monitored individually throughout the studies.
For combination studies, all compounds were administered within 30 min of each other.
The tumor growth delay (TGD) percentage was determined as the percentage increase of the median time period for the treatment group to reach an arbitrary tumor volume of 1000 mm^3 relative to the vehicle control group. […] A power analysis was conducted using historical data to determine the number of animals required to yield significance of 0.05 at a 30% difference. There were no animals excluded. Data from experiments in vivo were analyzed using the student’s t-test for TGI values and the Mann–Whitney U test for TGD using Excel and GraphPad Prism. Fisher’s exact test was used to probe significance of differences in response frequency.

Nc1ncn([C@@H]2O[C@H](CO)[C@@H](O)[C@H]2O)c(=O)n1 [5-azacitidine, reference compound]
effect on OCI-AML2 xenograft growth (venetoclax 25 mg/kg QD × 14, azacitidine 8 mg/kg Q7D × 3, or the combination of both): no meaningful effect

Nc1ncn([C@@H]2O[C@H](CO)[C@@H](O)[C@H]2O)c(=O)n1 [A-37426.0 (5-Aza)]
Tumor Volume Day 14, Mean [1]: 204.71 mm³ | Tumor Volume Day 14, Median [1]: 196.98 mm³ | % T/C (mean), Tumor Volume Day 14 [1]: 99.83% | % T/C (median), Tumor Volume Day 14 [1]: 103.17% | Tumor Volume Day 18, Mean [1]: 420.77 mm³ | Tumor Volume Day 18, Median [1]: 428.51 mm³ | % T/C (mean), Tumor Volume Day 18 [1]: 80.49% | % T/C (median), Tumor Volume Day 18 [1]: 74.19% | Tumor Volume Day 21, Mean [1]: 806.97 mm³ | Tumor Volume Day 21, Median [1]: 777.56 mm³ | % T/C (mean), Tumor Volume Day 21 [1]: 88.35% | % T/C (median), Tumor Volume Day 21 [1]: 78.44% | Mortality Observation Day 25 (individual animals) [2]: EUTV | Tumor Volume (mm³) Day 25, Mean [3]: 1474.66 mm³ | Tumor Volume (mm³) Day 25, Median [4]: 1414.73 mm³ | % T/C (mean), Tumor Volume Day 25 [1]: 76.12% | % T/C (median), Tumor Volume Day 25 [1]: 72.28% | % Mortality (Group 04, 8 mg/kg IV Q7Dx3): 100.00%

CC1(C)CCC(CN2CCN(c3ccc(C(=O)NS(=O)(=O)c4ccc(NCC5CCOCC5)c([N+](=O)[O-])c4)c(Oc4cnc5[nH]ccc5c4)c3)CC2)=C(c2ccc(Cl)cc2)C1 [A-1195425.0 (Venetoclax)]
Tumor Volume Day 14, Mean [1]: 204.64 mm³ | Tumor Volume Day 14, Median [1]: 193.77 mm³ | % T/C (mean), Tumor Volume Day 14 [1]: 99.79% | % T/C (median), Tumor Volume Day 14 [1]: 101.49% | Tumor Volume Day 18, Mean [1]: 437.16 mm³ | Tumor Volume Day 18, Median [1]: 415.67 mm³ | % T/C (mean), Tumor Volume Day 18 [1]: 83.63% | % T/C (median), Tumor Volume Day 18 [1]: 71.96% | Tumor Volume Day 21, Mean [1]: 934.07 mm³ | Tumor Volume Day 21, Median [1]: 1005.20 mm³ | % T/C (mean), Tumor Volume Day 21 [1]: 102.27% | % T/C (median), Tumor Volume Day 21 [1]: 101.40% | Mortality Observation Day 25 (individual animals) [2]: EUTV | Tumor Volume (mm³) Day 25, Mean [3]: 1624.63 mm³ | Tumor Volume (mm³) Day 25, Median [4]: 1781.81 mm³ | % T/C (mean), Tumor Volume Day 25 [1]: 83.87% | % T/C (median), Tumor Volume Day 25 [1]: 91.03% | % Mortality (Group 03, 25 mg/kg PO QDx14): 100.00%

Cc1c(Cl)c2c(Cl)c(C)c1-c1c(-c3ccc(F)cc3)sc3ncnc(c13)O[C@@H](C(=O)O)Cc1cc(ccc1OCc1ccnc(-c3ccc(OC[C@H]4COCCO4)cc3)n1)OC[C@@H](CN1CCN(C)CC1)O2 [A-1747745.0 (ABBV-467, MCL-1i)]
Tumor Volume Day 14, Mean [1]: 205.07 mm³ | Tumor Volume Day 14, Median [1]: 194.10 mm³ | % T/C (mean), Tumor Volume Day 14 [1]: 100.01% | % T/C (median), Tumor Volume Day 14 [1]: 101.66% | Tumor Volume Day 18, Mean [1]: 319.69 mm³ | Tumor Volume Day 18, Median [1]: 302.00 mm³ | % T/C (mean), Tumor Volume Day 18 [1]: 61.16% | % T/C (median), Tumor Volume Day 18 [1]: 52.29% | Tumor Volume Day 21, Mean [1]: 701.23 mm³ | Tumor Volume Day 21, Median [1]: 681.22 mm³ | % T/C (mean), Tumor Volume Day 21 [1]: 76.77% | % T/C (median), Tumor Volume Day 21 [1]: 68.72% | Tumor Volume (mm³) Day 25, Mean [3]: 978.87 mm³ | Tumor Volume (mm³) Day 25, Median [4]: 1025.66 mm³ | % T/C (mean), Tumor Volume Day 25 [1]: 50.53% | % T/C (median), Tumor Volume Day 25 [1]: 52.40% | Mortality Observation Day 28 (individual animals) (Day 28, ABBV-467 […] Q7Dx3 IV, Venetoclax 25 mg/kg QDx14 PO, 5-Aza 8 mg/kg Q7Dx3 IV): EUTV | Tumor Volume (mm³) Day 28, Mean (Day 28, group mean, n=8, ABBV-467 […] Q7Dx3 IV, Venetoclax 25 mg/kg QDx14 PO, 5-Aza 8 mg/kg Q7Dx3 IV): 1642.98 mm³ | Tumor Volume (mm³) Day 28, Median (Day 28, group median, n=8, ABBV-467 […] Q7Dx3 IV, Venetoclax 25 mg/kg QDx14 PO, 5-Aza 8 mg/kg Q7Dx3 IV): 1495.57 mm³

Reference: publication PMC10600239, “Selective MCL-1 inhibitor ABBV-467 is efficacious in tumor models but is associated with cardiac troponin increases in patients” (Communications Medicine, 2023)
